Assay results taken from article PMC11448502, “Cryo-EM structures of the human P2X1 receptor reveal subtype-specific architecture and antagonism by supramolecular ligand-binding” (Nature Communications, 2024).
Positions count from the first letter of the chain named. Values joined by “and” are separate entries in the source; they are usually repeats but may differ in a detail not shown here. Equal values may be shown once.

Experiments:
Assay in all cases: NF449 inhibition dose response (IC50), TEVC in oocytes
Format in all cases: cell-based
hP2X1 N184A = target: T1, hP2X1 N184A (Homo sapiens, UniProt P51575, N184A); details: for Normalized Current: hP2X1 N184A
T1 construct: hP2X1 mRNA that was made from linearized full-length wild-type or mutant pcDNA 3.1x; expressed in transfected cells; host or cells: Xenopus laevis oocytes (mRNA injection)
T1 sequence (P51575 1-399 N184A): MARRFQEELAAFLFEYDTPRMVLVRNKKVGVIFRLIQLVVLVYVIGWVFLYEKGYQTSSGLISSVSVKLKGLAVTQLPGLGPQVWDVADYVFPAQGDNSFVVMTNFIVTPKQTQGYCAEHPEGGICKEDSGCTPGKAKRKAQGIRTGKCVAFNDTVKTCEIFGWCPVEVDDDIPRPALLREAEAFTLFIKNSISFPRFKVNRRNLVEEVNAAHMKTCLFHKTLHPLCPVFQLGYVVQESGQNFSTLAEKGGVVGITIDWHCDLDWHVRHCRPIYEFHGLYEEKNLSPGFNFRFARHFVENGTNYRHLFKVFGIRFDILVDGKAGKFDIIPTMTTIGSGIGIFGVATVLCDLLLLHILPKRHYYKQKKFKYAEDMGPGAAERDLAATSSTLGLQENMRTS
Description: (§1) Oocytes were purchased defolliculated from Ecocyte Bioscience in Barth’s Solution (88 mM NaCl, 1 mM KCl, 0.82 mM MgSO4, 0.33 mM Ca(NO3)2, 0.41 mM CaCl2, 2.4 mM NaHCO3, 5 mM Tris-HCl) supplemented with penicillin (100 U/mL) and streptomycin (100 µg/mL). Xenopus laevis oocytes were then injected with 50 nL of 100 ng/μL hP2X1 mRNA that was made from linearized full-length wild-type or mutant pcDNA 3.1x according to the protocol provided in the mMessage mMachine kit (Invitrogen). Injected oocytes were allowed to express for ~20 hours at 18 °C before recording was performed.
(§2) Data acquisition was performed using the Oocyte Clamp OC-725C amplifier and pClamp 8.2 software. Buffers were applied using a gravity fed RSC-200 Rapid Solution Changer that flows at ~5 mL/min. All experiments use Sutter filamented glass 10 cm in length with an inner diameter of 0.69 mm and an outer diameter of 1.2 mm to impale oocytes and clamp the holding voltage at −60 mV. Experiments were recorded in buffer containing 10 mM HEPES (pH 7.4), 140 mM NaCl, 5 mM KCl, 2 mM CaCl2, 2 mM MgCl2, and 10 mM glucose.
(§3) To test a dilution series of an antagonist at discrete concentrations, 10 µM ATP (2 mM ATP for K309A only) was first applied to evoke an initial maximum current. The oocyte was then washed with buffer for one minute, followed by one minute application of an antagonist test-concentration, and concluded by co-application of the same test concentration with 10 µM ATP (2 mM ATP for K309A). The antagonized signal was then normalized against the initial ATP excitatory signal. Each test concentration was performed in triplicate across different oocytes. The data was then fit to a nonlinear regression named “[inhibitor] vs. response – Variable slope (four parameters)” in Prism 9 to produce a sigmoidal curve and afford an IC50 value. Each singular condition was used to generate an average which is reported plus or minus its standard deviation between three discrete trials.

hP2X1 WT = target: T2, hP2X1 WT (Homo sapiens, UniProt P51575)
T2 construct: hP2X1 mRNA that was made from linearized full-length wild-type or mutant pcDNA 3.1x; expressed in transfected cells; host or cells: Xenopus laevis oocytes (mRNA injection)
T2 sequence (P51575 1-399): T1 sequence (P51575 1-399 N184A) with A184N
Description: as §1, §2, §3

hP2X1 R292A = target: T3, hP2X1 R292A (Homo sapiens, UniProt P51575, R292A); details: for Normalized Current: hP2X1 R292A
T3 construct: hP2X1 mRNA that was made from linearized full-length wild-type or mutant pcDNA 3.1x; expressed in transfected cells; host or cells: Xenopus laevis oocytes (mRNA injection)
T3 sequence (P51575 1-399 R292A): T1 sequence (P51575 1-399 N184A) with A184N, R292A
Description: as §1, §2, §3

hP2X1 K136A = target: T4, hP2X1 K136A (Homo sapiens, UniProt P51575, K136A); details: for Normalized Current: hP2X1 K136A
T4 construct: hP2X1 mRNA that was made from linearized full-length wild-type or mutant pcDNA 3.1x; expressed in transfected cells; host or cells: Xenopus laevis oocytes (mRNA injection)
T4 sequence (P51575 1-399 K136A): T1 sequence (P51575 1-399 N184A) with K136A, A184N
Description: as §1, §2, §3

## O=C(Nc1cc(C(=O)Nc2ccc(S(=O)(=O)O)cc2S(=O)(=O)O)cc(C(=O)Nc2ccc(S(=O)(=O)O)cc2S(=O)(=O)O)c1)Nc1cc(C(=O)Nc2ccc(S(=O)(=O)O)cc2S(=O)(=O)O)cc(C(=O)Nc2ccc(S(=O)(=O)O)cc2S(=O)(=O)O)c1 [NF449, 4,4’,4”,4’’’-(carbonylbis(imino-5,1,3-benzenetriylbis(carbonylimino)))tetrakis-benzene-1,3-disulfonic acid]
hP2X1 N184A; hP2X1 N184A vs wild-type
  reduction in inhibitory potency of NF449: ~ 6 fold
hP2X1 N184A; [NF449] 1.280E-11 M
  Normalized Current: 1.058 and 0.9967 and 0.9456
hP2X1 N184A; [NF449] 1.600E-09 M
  Normalized Current: 0.7543 and 0.7296
hP2X1 N184A; [NF449] 3.200E-10 M
  Normalized Current: 0.9687 and 0.7936 and 0.7686
hP2X1 N184A; [NF449] 4.000E-08 M
  Normalized Current: 0.04235 and 0.03835 and 0.03234
hP2X1 N184A; [NF449] 6.400E-11 M
  Normalized Current: 0.9352 and 0.9156 and 0.8436
hP2X1 N184A; [NF449] 8.000E-09 M
  Normalized Current: 0.4048 and 0.3885 and 0.3164
hP2X1 WT; [NF449] 1.600E-10 M
  Normalized Current: 0.9675 and 0.945 and 0.9562
hP2X1 WT; [NF449] 3.200E-11 M
  Normalized Current: 1.007 and 0.9213 and 1.004
hP2X1 WT; [NF449] 6.400E-12 M
  Normalized Current: 1.049 and 0.9637 and 0.9878
hP2X1 WT; [NF449] 8.000E-10 M
  Normalized Current: 0.5214 and 0.4548 and 0.5008
hP2X1 R292A; hP2X1 R292A vs wild-type
  reduction in inhibitory potency of NF449: 31 fold
hP2X1 R292A; [NF449] 1.000E-06 M
  Normalized Current: 0.000000
hP2X1 R292A; [NF449] 1.600E-09 M
  Normalized Current: 1.038 and 1.012 and 0.9446
hP2X1 R292A; [NF449] 2.000E-07 M
  Normalized Current: 0.09965 and 0.08304 and 0.07993
hP2X1 R292A; [NF449] 3.200E-10 M
  Normalized Current: 1.08 and 0.9654 and 0.955
hP2X1 R292A; [NF449] 4.000E-08 M
  Normalized Current: 0.4671 and 0.3945 and 0.2595
hP2X1 R292A; [NF449] 8.000E-09 M
  Normalized Current: 0.8305 and 0.7889 and 0.7059
hP2X1 K136A; hP2X1 K136A vs wild-type
  reduction in inhibitory potency (IC50) of NF449: 39 fold
hP2X1 K136A; [NF449] 1.600E-09 M
  Normalized Current: 1
hP2X1 K136A; [NF449] 2.000E-07 M
  Normalized Current: 0.205 and 0.1861 and 0.1104
hP2X1 K136A; [NF449] 3.200E-10 M
  Normalized Current: 0.9716 and 0.9527 and 0.8864
hP2X1 K136A; [NF449] 4.000E-08 M
  Normalized Current: 0.5079 and 0.4606 and 0.4322
hP2X1 K136A; [NF449] 8.000E-09 M
  Normalized Current: 0.7634 and 0.7445 and 0.5647
